Results published in ChEMBL document CHEMBL5154749 (Eur J Med Chem, 2022).
pIC50: −log10 of the molar value. Calls of active or inactive are those of the source. The calls are words filed in the database; no cut-off is given here.

Experiments:
LoVo [1] = experiment: Induction of DNA damage in human LoVo cells deficient in ATM at 1 uM measured after 3 days by immunofluorescence assay; format: functional, cell-based; conditions: time 3.0 day
HT-29 [2] = experiment: Induction of apoptosis in human HT-29 cells assessed as viable cells at 1 uM measured after 48 hrs in presence of AZD1390 by Annexin V-FITC/Propidium iodide staining based flow cytometry analysis (reference value: 95.33%); format: functional; conditions: read-out: Activity
MCF7 = experiment: Antiproliferative activity against ATM proficient human MCF7 cells assessed as reduction in cell viability incubated for 72 hrs by MTT assay; format: functional, cell-based; conditions: dose 0.001-100 µM, DDE = dose-dependent effect
HCT-116 = experiment: Antiproliferative activity against ATM proficient human HCT-116 cells assessed as reduction in cell viability incubated for 72 hrs by MTT assay; format: functional, cell-based; conditions: dose 0.001-100 µM, DDE = dose-dependent effect
[3] = biological target: T1, Serine/threonine-protein kinase ATR (Homo sapiens, UniProt Q13535); experiment: Inhibition of ATR signalling in ATM-deficient human LoVo cells assessed as inhibition of ATR phosphorylation incubated for 1 hr followed by hydroxyurea addition measured after 4 hrs by Western blot analysis; format: cell-based; conditions: dose <= 3.0 µM, time 5.0 hrs, DDE = dose-dependent effect
LoVo [4] = experiment: Antimigratory activity in human LoVo cells assessed as suppression of cell migration measured up to 48 hrs by wound healing assay; format: functional, cell-based; conditions: dose <= 1.0 µM, DDE = dose-dependent effect
HT-29 [5] = experiment: Antiproliferative activity against human HT-29 cells assessed as reduction in cell viability incubated for 72 hrs in presence of AZD1390 by MTT assay; format: functional, cell-based; conditions: HT-29, 72 h
LoVo [6] = experiment: Induction of apoptosis in human LoVo cells deficient in ATM assessed as early apoptotic cells at 0.3 uM measured after 24 hrs by Annexin V-FITC/Propidium iodide staining based flow cytometric analysis (reference value: 4.20%); format: functional
LoVo [7] = experiment: Induction of apoptosis in human LoVo cells deficient in ATM assessed as late apoptotic cells at 0.3 uM measured after 24 hrs by Annexin V-FITC/Propidium iodide staining based flow cytometry analysis (reference value: 3.32%); format: functional
LoVo [8] = experiment: Induction of apoptosis in human LoVo cells deficient in ATM assessed as necrotic cells at 1 uM measured after 24 hrs by Annexin V-FITC/Propidium iodide staining based flow cytometry analysis (reference value: 0.84%); format: functional
LoVo [9] = experiment: Induction of apoptosis in human LoVo cells deficient in ATM assessed as early apoptotic cells at 3 uM measured after 24 hrs by Annexin V-FITC/Propidium iodide staining based flow cytometry analysis (reference value: 4.20%); format: functional
HT-29 [10] = experiment: Induction of apoptosis in human HT-29 cells assessed as early apoptotic cells at 0.3 uM measured after 48 hrs by Annexin V-FITC/Propidium iodide staining based flow cytometry analysis (reference value: 1.55%); format: functional
HT-29 [11] = experiment: Induction of apoptosis in human HT-29 cells assessed as early apoptotic cells at 1 uM measured after 48 hrs by Annexin V-FITC/Propidium iodide staining based flow cytometry analysis (reference value: 1.55%); format: functional
HT-29 [12] = experiment: Induction of apoptosis in human HT-29 cells assessed as viable cells at 1 uM measured after 48 hrs by Annexin V-FITC/Propidium iodide staining based flow cytometry analysis (reference value: 97.01%); format: functional; conditions: read-out: Activity
HT-29 [13] = experiment: Induction of apoptosis in human HT-29 cells assessed as early apoptotic cells at 3 uM measured after 48 hrs by Annexin V-FITC/Propidium iodide staining based flow cytometry analysis (reference value: 1.55%); format: functional
HT-29 [14] = experiment: Induction of apoptosis in human HT-29 cells assessed as necrotic cells at 3 uM measured after 48 hrs by Annexin V-FITC/Propidium iodide staining based flow cytometry analysis (reference value: 0.73%); format: functional
HT-29 [15] = experiment: Induction of apoptosis in human HT-29 cells assessed as late apoptotic cells at 3 uM measured after 48 hrs in presence of AZD1390 by Annexin V-FITC/Propidium iodide staining based flow cytometry analysis (reference value: 0.63%); format: functional
[16] = Half life in Sprague-Dawley rat at 10 mg/kg, po measured at 0.083 to 24 hrs by LC-MS/MS method; format: ADME, organism-based; conditions: in vivo, time 0.083-24 hrs
[17] = AUC (0 to infinity) in Sprague-Dawley rat at 10 mg/kg, po measured at 0.083 to 24 hrs by LC-MS/MS method; format: ADME, organism-based; design: time lower 0.083 hrs, dose 10 mg/kg, time upper 24 hrs, route po; conditions: in vivo
[18] = Volume of distribution at steady state in Sprague-Dawley rat at 5 mg/kg, iv measured at 0.083 to 24 hrs by LC-MS/MS method; format: ADME, organism-based; conditions: in vivo, time 0.083-24 hrs, read-out: Vdss
LoVo [19] = experiment: Antitumor activity against human LoVo cells xenografted in NOD/SCID mouse assessed as tumor growth inhibition at 100 mg/kg, po BID for 30 days measured every 2 to 3 days; format: functional; conditions: 720 h, time 30 day, read-out: TGI
[20] = Toxicity in NOD/SCID mouse xenografted with human LoVo cells assessed as damage in spleen at 50 to 100 mg/kg, po administered bid for 30 days measured after 2 hrs post last dose by H and E staining method; format: organism-based; conditions: in vivo, 720 h, dose 50-100 mg/kg, time 30 day
HT-29 [21] = experiment: Induction of DNA damage in human HT-29 cells proficient in ATM at 1 uM measured after 3 days in presence of AZD1390 by immunofluorescence assay; format: functional, cell-based; conditions: time 3.0 day
[22] = biological target: Serine-protein kinase ATM (Homo sapiens) (UniProt Q13315); experiment: Activation of ATM signaling in human HT-29 cells proficient in ATM at 1 uM measured after 3 days by immunofluorescence assay; format: cell-based; conditions: filed as activator, time 3.0 day
[23] = biological target: Serine/threonine-protein kinase B-raf (Homo sapiens, UniProt P15056); experiment: Inhibition of human recombinant B-raf (416 to end residue) using myelin-Bas as substrate incubated for 40 mins in presence of ATP by scintillation counting method
[24] = biological target: T1, Serine/threonine-protein kinase ATR; experiment: Inhibition of ATR signalling in ATM-deficient human LoVo cells assessed as change in expression of Chk1 at up to 3 uM incubated for 1 hr followed by hydroxyurea addition measured after 4 hrs by Western blot analysis; format: cell-based; conditions: time 5.0 hrs
LoVo [25] = experiment: Antimigratory activity in human LoVo cells assessed as suppression of cell migration measured at up to 1 uM by wound healing assay; format: functional, cell-based; conditions: time <= 48.0 hrs, TDE = time-dependent effect
[26] = biological target: T1, Serine/threonine-protein kinase ATR; experiment: In vivo inhibition of ATR in human LoVo cells xenografted in NOD/SCID mouse assessed as inhibition of ATR phosphorylation at 50 to 100 mg/kg, po administered twice a day for 30 days by Western blot analysis; conditions: dose 50-100 mg/kg, time 30.0 day
[27] = biological target: T1, Serine/threonine-protein kinase ATR; experiment: In vivo inhibition of ATR in human LoVo cells xenografted in NOD/SCID mouse assessed as inhibition of Chk1 phosphorylation at 50 to 100 mg/kg, po administered twice a day for 30 days by Western blot analysis; conditions: dose 50-100 mg/kg, time 30.0 day

T1 sequence (Q13535 whole entry, looked up): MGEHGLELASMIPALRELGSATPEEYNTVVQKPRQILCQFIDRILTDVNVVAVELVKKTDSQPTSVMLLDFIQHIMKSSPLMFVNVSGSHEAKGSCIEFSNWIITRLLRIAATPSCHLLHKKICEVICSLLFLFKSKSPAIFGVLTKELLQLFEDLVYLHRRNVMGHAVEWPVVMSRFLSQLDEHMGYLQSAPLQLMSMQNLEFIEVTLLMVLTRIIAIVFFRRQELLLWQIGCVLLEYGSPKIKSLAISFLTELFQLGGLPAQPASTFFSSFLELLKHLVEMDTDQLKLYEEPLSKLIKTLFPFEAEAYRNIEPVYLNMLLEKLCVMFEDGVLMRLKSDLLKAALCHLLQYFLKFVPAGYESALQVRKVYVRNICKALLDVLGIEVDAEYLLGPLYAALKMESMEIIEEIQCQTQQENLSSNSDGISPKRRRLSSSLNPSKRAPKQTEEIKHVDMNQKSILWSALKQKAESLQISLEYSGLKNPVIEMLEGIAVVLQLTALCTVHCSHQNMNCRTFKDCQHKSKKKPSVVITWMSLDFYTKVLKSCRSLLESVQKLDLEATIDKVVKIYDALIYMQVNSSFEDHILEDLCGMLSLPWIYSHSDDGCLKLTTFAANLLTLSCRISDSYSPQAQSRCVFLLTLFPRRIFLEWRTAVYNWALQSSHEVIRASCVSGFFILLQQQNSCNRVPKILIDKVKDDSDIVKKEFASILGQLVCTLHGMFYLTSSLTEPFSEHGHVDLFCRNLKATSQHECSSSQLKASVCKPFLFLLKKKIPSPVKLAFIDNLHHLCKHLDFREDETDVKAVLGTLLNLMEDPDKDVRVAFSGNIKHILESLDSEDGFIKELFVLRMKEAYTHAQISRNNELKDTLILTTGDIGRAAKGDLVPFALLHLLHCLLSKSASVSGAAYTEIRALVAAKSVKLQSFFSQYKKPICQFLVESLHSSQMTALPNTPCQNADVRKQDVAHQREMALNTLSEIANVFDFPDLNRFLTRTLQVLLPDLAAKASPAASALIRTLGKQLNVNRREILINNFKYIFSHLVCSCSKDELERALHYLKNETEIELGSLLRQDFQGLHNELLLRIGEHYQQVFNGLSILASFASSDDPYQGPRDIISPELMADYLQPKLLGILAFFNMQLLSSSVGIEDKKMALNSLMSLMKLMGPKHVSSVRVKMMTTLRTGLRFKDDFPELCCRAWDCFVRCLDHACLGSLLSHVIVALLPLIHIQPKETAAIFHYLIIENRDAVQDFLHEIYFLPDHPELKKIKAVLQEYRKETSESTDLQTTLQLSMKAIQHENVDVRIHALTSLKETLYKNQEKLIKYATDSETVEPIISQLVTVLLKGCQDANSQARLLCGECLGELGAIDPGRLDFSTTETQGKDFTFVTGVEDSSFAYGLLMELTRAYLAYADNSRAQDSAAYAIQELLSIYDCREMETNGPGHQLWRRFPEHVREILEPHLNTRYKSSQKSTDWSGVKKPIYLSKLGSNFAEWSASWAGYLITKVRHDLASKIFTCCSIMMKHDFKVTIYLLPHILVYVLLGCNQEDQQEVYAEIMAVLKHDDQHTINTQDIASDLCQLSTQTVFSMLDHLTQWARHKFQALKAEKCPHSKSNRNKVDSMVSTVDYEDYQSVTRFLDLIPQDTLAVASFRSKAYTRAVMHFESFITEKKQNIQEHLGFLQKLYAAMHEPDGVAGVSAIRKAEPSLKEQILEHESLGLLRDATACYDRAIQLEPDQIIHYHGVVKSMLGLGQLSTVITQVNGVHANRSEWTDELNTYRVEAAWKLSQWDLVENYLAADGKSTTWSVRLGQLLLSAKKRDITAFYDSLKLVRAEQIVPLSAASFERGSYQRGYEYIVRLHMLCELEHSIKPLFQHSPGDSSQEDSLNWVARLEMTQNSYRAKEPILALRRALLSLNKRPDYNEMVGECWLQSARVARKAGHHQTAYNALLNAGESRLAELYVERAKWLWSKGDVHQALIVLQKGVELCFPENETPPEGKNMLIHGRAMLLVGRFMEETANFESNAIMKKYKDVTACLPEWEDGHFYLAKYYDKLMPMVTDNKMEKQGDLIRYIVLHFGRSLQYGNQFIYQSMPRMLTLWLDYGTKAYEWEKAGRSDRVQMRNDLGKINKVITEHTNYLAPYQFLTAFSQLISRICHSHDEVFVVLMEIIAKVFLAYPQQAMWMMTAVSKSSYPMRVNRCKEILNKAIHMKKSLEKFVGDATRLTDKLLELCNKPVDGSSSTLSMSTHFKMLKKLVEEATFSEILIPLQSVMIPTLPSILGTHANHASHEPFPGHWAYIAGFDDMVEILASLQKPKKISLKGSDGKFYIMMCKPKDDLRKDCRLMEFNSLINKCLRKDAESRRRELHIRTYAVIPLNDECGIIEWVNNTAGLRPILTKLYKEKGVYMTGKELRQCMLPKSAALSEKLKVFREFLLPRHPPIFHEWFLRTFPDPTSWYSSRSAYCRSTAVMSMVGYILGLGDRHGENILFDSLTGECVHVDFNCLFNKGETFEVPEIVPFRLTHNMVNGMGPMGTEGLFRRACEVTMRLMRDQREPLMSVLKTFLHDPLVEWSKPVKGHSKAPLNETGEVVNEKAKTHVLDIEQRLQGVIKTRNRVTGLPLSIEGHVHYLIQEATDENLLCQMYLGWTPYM
Chain of Serine/threonine-protein kinase B-raf (P15056 whole entry): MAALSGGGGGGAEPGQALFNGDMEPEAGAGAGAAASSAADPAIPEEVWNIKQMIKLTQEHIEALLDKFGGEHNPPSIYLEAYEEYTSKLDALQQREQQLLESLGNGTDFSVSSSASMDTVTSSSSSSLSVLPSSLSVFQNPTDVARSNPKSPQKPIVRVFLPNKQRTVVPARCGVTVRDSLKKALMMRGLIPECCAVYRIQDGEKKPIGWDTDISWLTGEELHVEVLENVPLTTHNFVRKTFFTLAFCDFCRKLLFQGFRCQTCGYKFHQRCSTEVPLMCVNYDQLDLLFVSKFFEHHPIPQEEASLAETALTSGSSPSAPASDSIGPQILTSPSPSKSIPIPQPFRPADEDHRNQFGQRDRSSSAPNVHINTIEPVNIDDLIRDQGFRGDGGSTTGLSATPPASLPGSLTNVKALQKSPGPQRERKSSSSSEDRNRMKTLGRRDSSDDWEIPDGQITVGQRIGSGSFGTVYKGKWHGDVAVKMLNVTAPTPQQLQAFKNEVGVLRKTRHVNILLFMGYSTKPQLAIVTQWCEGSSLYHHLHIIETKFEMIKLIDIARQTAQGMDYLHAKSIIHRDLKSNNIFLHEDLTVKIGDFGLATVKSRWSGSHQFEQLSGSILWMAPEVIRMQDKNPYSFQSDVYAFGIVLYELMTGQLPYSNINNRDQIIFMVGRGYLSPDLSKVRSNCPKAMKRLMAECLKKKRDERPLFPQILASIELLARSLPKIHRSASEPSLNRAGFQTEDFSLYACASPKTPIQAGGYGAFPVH

C[C@@H]1COCCN1c1nc(-c2cccc3[nH]ccc23)nc2ccc(-c3ccnn3C)cc12
Activity (LoVo [1]): Active | viability at 1 µM (HT-29 [2]): 80.9% | Activity (MCF7): Dde | Activity (HCT-116): Dde | inhibition [3]: Dde | Activity (LoVo [4]): Dde | pIC50 (HT-29 [5]): 6.36 | Activity (LoVo [6]): 24.04% | Activity (LoVo [7]): 17.38% | Activity (LoVo [8]): 2.39% | Activity (LoVo [9]): 27.07% | Activity (HT-29 [10]): 1.47% | Activity (HT-29 [11]): 2.32% | viability at 1 µM (HT-29 [12]): 94.7% | Activity (HT-29 [13]): 2.64% | Activity (HT-29 [14]): 1.71% | Activity (HT-29 [15]): 20.78% | half-life [16]: 1.14 h | AUC(0-inf) [17]: 2720 ng·h/mL | Vd [18]: 2.03 L/kg | inhibition in vivo at 100 mg/kg (LoVo [19]): 72.8% | Activity [20]: Non-Toxic | Activity (HT-29 [21]): Active | Activity [22]: Active | pIC50 [23]: 5.75 | inhibition [24]: Active | Activity (LoVo [25]): Tde | Activity [26]: Active | Activity [27]: Active
